Source: patent publication US20090118365A1, “Use of Prodrugs of GABA B Agonists for Treating Neuropathic and Musculoskeletal Pain” (XenoPort, Inc, priority 2007, published 2009)

Tests used:
[1] = in vivo; cited from earlier work
[2] = male, cynomolgus monkey, in vivo
Description: The following method can be used to determine the oral bioavailability of GABAB agonist prodrugs provided by the present disclosure in Cymologous monkeys, and therefore the appropriateness of the GABAB agonist prodrugs for use in oral sustained release dosage forms for treating neuropathic and musculoskeletal pain.
All plasma samples were subsequently analyzed for (R)-baclofen and intact prodrug using the LC/MS/MS assay described above.

[3] = rat, in vivo, 10 mg
Protocol: Rats were obtained commercially and were pre-cannulated in the both the ascending colon and the jugular vein. Animals were conscious at the time of the experiment. All animals were fasted overnight and until 4 hours post-dosing. […] Blood samples were analyzed as described according to the following procedure. […]
An API 2000 LC/MS/MS spectrometer equipped with Shimadzu 10ADVp binary pumps and a CTC HTS-PAL autosampler was used in the analysis. […] The peaks were integrated using Analyst 1.2 quantitation software.

| SMILES | elimination half-life [1] [h] | oral bioavailability as (R)-baclofen [2] | maximum plasma concentration of (R)-baclofen (Cmax) relative to colonic administration of (R)-baclofen itself [3] [fold] |
| --- | --- | --- | --- |
| NCC(CC(=O)O)c1ccc(Cl)cc1 (racemic) [baclofen, (±)-4-Amino-3-(4-chlorophenyl)butanoic acid] | 3 to 4 | – | – |
| CC(C)C(=O)O[C@@H](OC(=O)NC[C@H](CC(=O)O)c1ccc(Cl)cc1)C(C)C [compound (4), (3R)-4-{[(1S)-2-methyl-1-(2-methylpropanoyloxy)propoxy]carbonylamino}-3-(4-chlorophenyl)butanoic acid] | – | greater than 80% | > 2 |
